# Test results published in patent US6649656B1, “Anthranilic acid derivatives” (Teijin Limited, priority 1998, dated 2003).
# Where two headings read alike, the source gives them in different places.
# Key:
# Format in all cases: cell-based
# [1] = test system: IgE antibody production from human lymphocyte; assay: Human in vitro IgE antibody production suppressing activity (lymphocyte culture with IL-4 + IL-10 + anti-CD40 antibody, sandwich ELISA); conditions: for IC50: IgE antibody production; for inhibition at 1 µM: test drug concentration 1 μM, IL-4 + IL-10 + anti-CD40 antibody, read-out: IgE production suppressing ratio (%)
# Method: (§1) The concentrations of IgE and IgG antibodies were measured by the following method according to the method described in the Journal of Immunology vol.146, pp.1836-1842, 1991 and the Journal of Immunology vol. 147, pp.8-13, 1991.
# (§2) Concretely, lymphocyte was separated from the peripheral venous blood of healthy person by density gradient centrifugation. The obtained lymphocyte was washed, suspended in a culture liquid (RPMI-1640 (product of Gibco Co.)+10% heat-inactivated FCS (product of Whittaker Co.)+100 μg/ml streptomycin+100 U/ml penicillin G+2 mM L-glutamine) and cultured for a week in the presence of interleukin 4 (IL-4, product of GENZYME Co.) (0.1 μg/ml), anti-CD40 antibody (antiCD40Aab, product of BIOSOURCE Co.), clone B-B20) (2 μg/ml) and interleukin 10 (IL-10, product of GENZYME Co.) (0.2 μg/ml) in the presence or absence of the compounds of the present invention described in the Tables 10 to 15 at various concentrations as test drugs.
# (§3) The culture liquid was added to the culture system, the culture was continued for additional one week, and the concentrations of IgE and IgG antibodies in the supernatant were measured by sandwich ELISA method.
# (§4) The measurement by ELISA method was carried out according to the known ELISA method by using rabbit anti-human IgE(ε) antibody (product of ICN Co.) as the primary antibody and biotin.anti-human IgE monoclonal antibody (G7-26, product of PharMingen Co.) as the secondary antibody for the measurement of IgE antibody concentration and anti-human IgG monoclonal antibody (G18-145, product of PharMingen Co.) as the primary antibody and biotin-donkey anti-human IgG antibody (H+L) (product of Jackson Co.) as the secondary antibody for the measurement of IgG antibody concentration, and using avidin-biotin-hourse radish peroxidase (ABC kit, product of Vector Lab.) as the enzyme and TMB (3,3′,5,5′-tetramethylbenzidine) microwell peroxidase substrate system (product of Kirkegaard & Perry Laboratories Inc.) as the substrate.
# (§5) The value of IC50 and the suppressing ratio (%) at the test drug concentration of 1 μM were calculated based on the concentration attained in the absence of the compound of the present invention (reference: Ueshimna, et al. American Academy of Allergy & Immunology, 1995 Annual Meeting, Program No.818).
# [2] = test system: IgG antibody production from human lymphocyte; assay: Human in vitro IgG antibody production (same lymphocyte culture, sandwich ELISA); conditions: for inhibition at 1 µM: Homo sapiens, Lymphocyte, test drug concentration 1 μM, IL-4 + IL-10 + anti-CD40 antibody, read-out: IgG production suppressing ratio (%); for IC50: IgG antibody production
# Method: as §1, §2, §3, §4, §5
# [3] = test system: L929 cells; assay: Measurement of cytotoxicity using mouse tumor cell L929 (neutral red assay)
# Method: [Procedure] The cytotoxicity action on tumor cell was measured by neutral red assay (the method described in the Journal of Tissue Culture Methodology vol.9, p.7 (1984) and Toxicology Letters, vol.24, p.119 (1985)). Concretely, L929 cells (5×10^4 cells/ml, 10% FCS/RPMI) were added to the wells of a 96 well ELISA plate at a rate of 100 μL each and cultured for a night, and the testing compounds of respective measurement concentrations were dissolved in DMSO solution and added to the above cells. The culture was continued for 3 days, and 2.0 μL of Neutral Red was added to attain the final concentration of 0.01%. The mixture was incubated for 1 hour at 37° C., the supernatant of the cell culture product was removed and the residue was washed twice with 200 μL of PBS to remove excess Neutral Red. Thereafter, the dye taken into the cell was extracted by adding 100 μL of 50% ethanol-1% acetic acid aqueous solution and the amount of the dye was determined by measuring the absorbance at 490 nm. The cytotoxicity was determined at each concentration of the test compound taking the cytotoxicity free from the drug as 100%. […] Two sets of measurement were performed for each test under the same condition and the average value was used as the test result.
# [4] = test system: Cultured human cancer cells; assay: Carcinostatic action on cultured human cancer cell (sulforhodamine B; GI50, TGI, LC50); conditions: for CC50 / GI50: Homo sapiens
# Method: [Procedure] Cultured human cancer cells (39 kinds) were scattered on a 96 well plate, a solution of the testing substance (5-stage concentrations starting from 10^−4 M and diluted 10 times to 10^−8 M) was added thereto on the next day and the cells were cultured for 2 days. The number of the proliferated cells on each plate was determined by colorimetric quantitative analysis with sulforhodamine B. The concentration to suppress the proliferation of cell by 50% (GI50) compared with a control (free from the testing substance) was calculated and the following values (concentrations) were calculated based on the number of cells immediately before the addition of the testing substance.
# TGI: concentration to suppress the proliferation to a standard cell number (free from the change of apparent number of cells)
# LC50: concentration to decrease the number of cells to 50% of the standard cell number (cytocidal activity)
# The proliferation-suppressing results of three testing substances 124, 257 and 983 on 9 representative cancer cell strains are collectively shown in the Tables 93 to 95.
# [5] = 72 h, cytotoxic activity against L929, neutral red assay, 3 days culture, read-out: LD50 (the source's name)
structure (smiles),measurement,setting,value
O=C(Cc1ccc(Oc2ccc(OC3CCC(NS(=O)(=O)c4ccccc4)CC3)cc2)cc1)Nc1ccccc1C(=O)O (stereo not drawn) [compound 121],IC50,[1],0.027 µM
same,inhibition at 1 µM,[1],100%
same,inhibition at 1 µM,[2],77.5%
same,IC50,[2],0.543 µM
same,CC50,"[3]; L929, 72 h, read-out: LD50 (μM)",1.8 µM
O=C(Cc1ccc(Oc2ccc(OC3CCC(NS(=O)(=O)c4ccc(Cl)c(Cl)c4)CC3)cc2)cc1)Nc1ccccc1C(=O)O (stereo not drawn) [compound 124],CC50,[3]; [5],0.14 µM
same,TGI,[4]; HBC-4,18 µM
same,TGI,[4]; HCT-15,17 µM
same,CC50,"[4]; HBC4, HBC-4",57 µM
same,GI50,"[4]; HBC4, HBC-4",0.25 µM
same,CC50,[4]; HCT-15,58 µM
same,GI50,[4]; HCT-15,0.17 µM
same,CC50,[4]; MKN-74,> 100 µM
same,GI50,[4]; MKN-74,0.086 µM
same,CC50,[4]; NCI-H460,69 µM
same,GI50,[4]; NCI-H460,0.091 µM
same,CC50,[4]; OVCAR-8,57 µM
same,GI50,[4]; OVCAR-8,3.1 µM
same,CC50,[4]; PC-3,55 µM
same,GI50,[4]; PC-3,10 µM
same,CC50,[4]; RXF-631L,38 µM
same,GI50,[4]; RXF-631L,0.13 µM
same,CC50,[4]; SF-539,57 µM
same,GI50,[4]; SF-539,0.13 µM
same,CC50,[4]; LOX-IMVI,45 µM
same,GI50,[4]; LOX-IMVI,0.09 µM
same,TGI,[4]; LOX-IMVI,10 µM
same,TGI,[4]; MKN-74,16 µM
same,TGI,[4]; NCI-H460,14 µM
same,TGI,[4]; OVCAR-8,23 µM
same,TGI,[4]; PC-3,24 µM
same,TGI,[4]; RXF-631L,12 µM
same,TGI,[4]; SF-539,26 µM
O=C(Cc1ccc(Oc2ccc(OC3CCC(NC(=O)Nc4ccccc4)CC3)cc2)cc1)Nc1ccccc1C(=O)O (stereo not drawn) [compound 138],CC50,[3]; [5],0.13 µM
CNc1ccccc1C(=O)N[C@H]1CC[C@@H](Oc2ccc(Oc3ccc(CC(=O)Nc4ccccc4C(=O)O)cc3)cc2)CC1 [compound 156],CC50,[3]; [5],0.3 µM
Cn1c(C(=O)N[C@H]2CC[C@@H](Oc3ccc(Oc4ccc(CC(=O)Nc5ccccc5C(=O)O)cc4)cc3)CC2)cc2ccccc21 [compound 167],CC50,[3]; [5],0.18 µM
O=C(Cc1ccc(Oc2ccc(O[C@H]3CC[C@@H](NC(=O)c4ccc(-c5ccccc5)cc4)CC3)cc2)cc1)Nc1ccccc1C(=O)O [compound 192],CC50,[3]; [5],0.26 µM
O=C(Cc1ccc(Oc2ccc(O[C@H]3CC[C@@H](NC(=O)c4ccc(Oc5cc(Cl)cc(Cl)c5)o4)CC3)cc2)cc1)Nc1ccccc1C(=O)O [compound 248],CC50,[3]; [5],0.085 µM
O=C(Cc1ccc(Oc2ccc(OC3CCN(Sc4ccc(Cl)c(Cl)c4)CC3)cc2)cc1)Nc1ccccc1C(=O)O [compound 257],TGI,[4]; HBC-4,18 µM
same,TGI,[4]; HCT-15,17 µM
same,CC50,"[4]; HBC4, HBC-4",58 µM
same,GI50,"[4]; HBC4, HBC-4",< 0.01 µM
same,CC50,[4]; HCT-15,53 µM
same,GI50,[4]; HCT-15,< 0.01 µM
same,CC50,[4]; MKN-74,> 100 µM
same,GI50,[4]; MKN-74,< 0.01 µM
same,CC50,[4]; NCI-H460,44 µM
same,GI50,[4]; NCI-H460,< 0.01 µM
same,CC50,[4]; OVCAR-8,59 µM
same,GI50,[4]; OVCAR-8,< 0.01 µM
same,CC50,[4]; PC-3,69 µM
same,GI50,[4]; PC-3,10 µM
same,CC50,[4]; RXF-631L,42 µM
same,GI50,[4]; RXF-631L,< 0.01 µM
same,CC50,[4]; SF-539,51 µM
same,GI50,[4]; SF-539,< 0.01 µM
same,CC50,[4]; LOX-IMVI,44 µM
same,GI50,[4]; LOX-IMVI,< 0.01 µM
same,TGI,[4]; LOX-IMVI,10 µM
same,TGI,[4]; MKN-74,16 µM
same,TGI,[4]; NCI-H460,11 µM
same,TGI,[4]; OVCAR-8,23 µM
same,TGI,[4]; PC-3,26 µM
same,TGI,[4]; RXF-631L,14 µM
same,TGI,[4]; SF-539,17 µM
N#Cc1cccc(SN2CCC(Oc3ccc(Oc4ccc(CC(=O)Nc5ccccc5C(=O)O)cc4)cc3)CC2)c1 [compound 264],CC50,[3]; [5],0.156 µM
O=C(Cc1ccc(Oc2ccc(OCC3(NSc4ccccc4)CCCC3)cc2)cc1)Nc1ccccc1C(=O)O [compound 268],CC50,[3]; [5],0.16 µM
CCOCCOc1ccc(Oc2ccc(CC(=O)Nc3ccccc3C(=O)O)cn2)cc1 [compound 415],IC50,[1],0.028 µM
same,inhibition at 1 µM,[1],100%
same,inhibition at 1 µM,[2],-85.8%
same,IC50,[2],9.76 µM
O=C(Cc1ccc(Oc2ccc3cc(OCCN4CCOCC4)ccc3c2)nc1)Nc1ccccc1C(=O)O [compound 427],IC50,[1],0.04 µM
same,inhibition at 1 µM,[1],96.4%
same,inhibition at 1 µM,[2],> 10%
same,IC50,[2],> 10 µM
O=C(Cc1ccc(Oc2ccc(OC3CCCCCCC3)cc2)nc1)Nc1ccccc1C(=O)O [compound 983],TGI,[4]; HBC-4,76 µM
same,TGI,[4]; HCT-15,30 µM
same,CC50,"[4]; HBC4, HBC-4",> 100 µM
same,GI50,"[4]; HBC4, HBC-4",0.59 µM
same,CC50,[4]; HCT-15,> 100 µM
same,GI50,[4]; HCT-15,0.1 µM
same,CC50,[4]; MKN-74,> 100 µM
same,GI50,[4]; MKN-74,0.46 µM
same,CC50,[4]; NCI-H460,95 µM
same,GI50,[4]; NCI-H460,0.33 µM
same,CC50,[4]; OVCAR-8,> 100 µM
same,GI50,[4]; OVCAR-8,4.2 µM
same,CC50,[4]; PC-3,> 100 µM
same,GI50,[4]; PC-3,4.5 µM
same,CC50,[4]; RXF-631L,96 µM
same,GI50,[4]; RXF-631L,0.4 µM
same,CC50,[4]; SF-539,51 µM
same,GI50,[4]; SF-539,0.6 µM
same,CC50,[4]; LOX-IMVI,50 µM
same,GI50,[4]; LOX-IMVI,0.26 µM
same,TGI,[4]; LOX-IMVI,3.4 µM
same,TGI,[4]; MKN-74,25 µM
same,TGI,[4]; NCI-H460,16 µM
same,TGI,[4]; OVCAR-8,40 µM
same,TGI,[4]; PC-3,31 µM
same,TGI,[4]; RXF-631L,18 µM
same,TGI,[4]; SF-539,20 µM
